Data taken from paper PMC8042910, “Adiponectin-mimetic novel nonapeptide rescues aberrant neuronal metabolic-associated memory deficits in Alzheimer’s disease” (Molecular Neurodegeneration, 2021).
Residues, ends and D or L forms follow the SMILES beside them.

Experiments:
[1] = system: SH-SY5Y cells; assay: ApoTox-Glo Triplex assay (viability, cytotoxicity, caspase 3/7), AβO-exposed cells; type: cell-based, human; details: AβO 1 μM, 12 h
Procedure: The ApoTox-Glo^TM Triplex assay (Promega, Madison, WI) was performed to assess the viability, cytotoxicity and caspase^3/7 activation in the human neuroblastoma SH-SY5Y and mouse hippocampal HT22 cells. SH-SY5Y and HT22 cells (2×10^4/ml) were cultured in 96-well plates (Thermo Fisher Scientific) containing DMEM supplemented with 10% FBS and 1% antibiotics and incubated at 37°C in a humidified incubator containing 5% CO2. After reaching 70% confluency, the cells were treated with AβO (1 µM) and different concentrations of Os-pep (0.5, 1, 5 and 10 µM) for 12 h. The control group (cells treated with 0.01% DMSO) was also analyzed. In addition, SH-SY5Y and HT22 cells were transfected with the AdipoR1 siRNA (h) (SC-60123) and AdipoR1 siRNA (m) (SC-60124), respectively, and treated with AβO (1 µM) and Os-pep (10 µM) for 12 h; the control group was transfected with the negative siRNA (Ambion, Thermo Fisher Scientific) and treated with 0.01% DMSO. The assay was performed according to our previously described protocols.

[2] = system: AdipoR1/p-AMPK signaling; assay: AdipoR1/p-AMPK signaling in mouse brain (immunoblot); type: in vivo; details: 5 μg/g, i.p., alternating days for 45 days
Procedure: (§1) Os-pep was dissolved in double-deionized distilled water and then prepared in normal saline to obtain the final administered concentration. The AβO, APP/PS1, Adipo^−/− and WT mice were injected i.p. with Os-pep at a dosage of 5 μg/g on alternating days for 45 days. WT, Veh-injected transgenic-APP/PS1 and Adipo^−/− mice were injected with the same volume of double-deionized water and normal saline. The WT control and sham mice as well as the Veh-injected AβO, APP/PS1, Adipo^−/− and HFD mice received the same volume of double-deionized distilled water or normal saline.
(§2) The protein concentrations of the homogenates of mouse brain tissue and cell lysates in vitro were measured using a Bio-Rad protein assay kit (Bio-Rad Laboratories, Hercules, CA), and immunoblotting was performed as we previously described, using primary antibodies (detailed information described in the supplementary Table 1). Western blotting membranes have been cut prior to original western blot images and original western blot images are available at supplementary material.

[3] = system: p-IRS-1; assay: Neuronal insulin resistance (p-IRS-1) in mouse brain, immunoblot; type: in vivo; details: AβO-treated, APP/PS1, Adipo−/− and HFD mice, 5 μg/g, i.p., alternating days for 45 days
Procedure: as §1, §2
A separate cohort of animals was used to develop the HFD mouse model. Eight-week-old C57BL/6N male mice were bought from Samtako Bio (Republic of Korea). Mice were housed in the university animal housing facility under a 12 h/12 h light/dark cycle at 23°C and 60 ± 10% humidity, with food and water available ad libitum. […]

[4] = system: p-IRS-1 and p-PI3K/Akt/GSK3β (Ser 9) pathways; assay: Insulin resistance and downstream insulin signaling in APPswe/ind-overexpressing SH-SY5Y cells, immunoblot; type: cell-based, human; details: Os-pep 10 μM
Procedure: Human neuroblastoma SH-SY5Y cells were seeded (in 6-well culture plates for immunoblotting and in chamber slides for immunofluorescence) in DMEM (Dulbecco’s modified Eagle medium) containing 10% fetal bovine serum (FBS) and 1% antibiotics (penicillin-streptomycin) and incubated at 37 °C in humidified air containing 5% CO2. Once the cells reached 70–80% confluence, the cells were transfected using the pCAX vector containing the APPswe/ind gene using Lipofectamine 3000 (Life Technologies) according to the provider’s protocols. AdipoR1 siRNA (h) (SC-60123) and AMPK siRNA (h) (SC-45312) (Santa Cruz Biotechnology, Inc.) were used at a concentration of 10 μM per transfection and expressed for 72 h according to the manufacturer’s protocol (Santa Cruz Biotechnology, Inc.). A negative siRNA (Ambion, Thermo Fisher Scientific) was used as a control. Seventy-two hours after the transfections, the cells were exposed to Os-pep (10 μM) for 12 h and then subjected to immunoblotting and immunofluorescence analyses.
Human neuroblastoma SH-SY5Y cells were treated with 1 µM of insulin for 48 h to produce intrinsic insulin-resistant human neuroblastoma (SH-SY5YIR) cells. After 48 h, SH-SY5YIR cells were overexpressed with human APPswe/ind and subjected with AdipoR1 siRNA which further exposed to 10 nM insulin, Os-pep (10 µM) or compound C (10 µM) for 12 h, and then cell lysates were collected and proceeded accordingly for immunoblotting and ELISA.

[5] = system: learning and memory functions; assay: Morris water maze (MWM) test; type: in vivo, mouse
Procedure: (§3) To evaluate the learning and memory functions of the mice, we performed the Morris water maze (MWM) and Y-maze tests. After completion of the Os-pep dosage regimen, behavioral studies were performed on AβO-injected, AβO-injected and scramble and functional AdipoR1 shRNA-treated, APP/PS1 and Adipo^−/− mice (n = 13/group) using the MWM and Y-maze tests. […] The mice were randomly selected, and the operators were unaware of the genotype and treatment details for the behavioral study. The MWM and Y-maze tests were performed as previously described.

[6] = system: spatial working memory; assay: Y-maze test; type: in vivo, mouse; details: AβO-injected, APP/PS1 and Adipo−/− mice, n = 13/group
Procedure: as §3

[7] = AβO-injected, APP/PS1 and Adipo−/− mice, n = 13/group

SMILES: C[C@@H](O)[C@H](NC(=O)[C@@H]1CCCN1C(=O)CNC(=O)[C@H](CS)NC(=O)[C@@H]1CCCN1C(=O)CNC(=O)[C@H](CCC(N)=O)NC(=O)[C@@H](NC(=O)[C@@H](N)CS)[C@@H](C)O)C(=O)O [Os-pep] (H-CTQGPCGPT-OH; N-terminus and C-terminus assumed)
- AβO-induced toxicity with AdipoR1 siRNA ([1]; AdipoR1 siRNA-transfected SH-SY5Y, Os-pep 10 μM): did not reduce the AβO-induced toxicity
- AβO neurotoxicity (viability, cytotoxicity, caspase 3/7) ([1]; SH-SY5Y, Os-pep 10 μM): significantly reduced AβO (1 μM) neurotoxicity
- neurotoxic effects of AβO ([1]; SH-SY5Y, cotreatment 0.5, 1, 5 and 10 μM): reduced the neurotoxic effects of AβO
- AdipoR1/p-AMPK signaling, AβO-injected mice ([2]; vs AβO-injected mice without Os-pep): significantly increased AdipoR1/p-AMPK signaling
- AdipoR1/p-AMPK signaling, APP/PS1 mice ([2]; vs Veh-treated APP/PS1): remarkably increased AdipoR1/p-AMPK signaling
- AdipoR1/AMPK levels, Adipo−/− mice ([2]; vs group without Os-pep): significantly increased AdipoR1/AMPK levels
- p-IRS-1 Ser636/312 levels [3]: significantly reducing the increase
- p-IRS-1 Tyr 632 levels [3]: significantly increasing
- p-IRS-1 Tyr 632 and p-PI3K/Akt/GSK3β (Ser 9) in insulin-resistant cells ([4]; APPswe/ind SH-SY5YIR (insulin 1 μM), 12 h): significantly activated
- p-IRS-1 Ser636/312 with AdipoR1 knockdown ([4]; APPswe/ind-overexpressing SH-SY5Y, AdipoR1 siRNA): did not downregulate
- p-IRS-1 Tyr 632 and p-PI3K/Akt/GSK3β (Ser 9) with AMPK knockdown ([4]; APPswe/ind-transfected SH-SY5Y, AMPK siRNA): did not upregulate
- spatial learning/memory functions with AdipoR1 silencing (MWM and Y-maze) ([5]; AβO-injected mice exposed to shRNA silencing of AdipoR1 gene, vs scramble shRNA): did not improve spatial learning/memory functions
- latency to reach the submerged platform, training session ([5]; AβO-injected, APP/PS1 and Adipo−/− mice, 5 μg/g, i.p., alternating days for 45 days, n = 13/group): decrease in the latency
- number of platform crossings, probe test [5, 7]: significantly increased number of platform crossings
- time spent in the target quadrant, probe test [5, 7]: more time was spent in the target quadrant
- percentage of spontaneous alternation behaviors [6]: significantly increased
